Target: GST-Bc1-2 (Homo sapiens, UniProt P10415)
Assay: Time Resolved-Fluorescence Resonance Energy Transfer (TR-FRET) Bcl-2 binding assay with F-Bak peptide probe
Conditions: GST-Bcl-2 1 nM, F-Bak probe 100 nM, Tb-anti-GST 1 nM; '<' = below limit of detection; read-out: TR-FRET Bcl-2 Binding Ki

Sequence of GST-Bc1-2 (P10415 whole entry): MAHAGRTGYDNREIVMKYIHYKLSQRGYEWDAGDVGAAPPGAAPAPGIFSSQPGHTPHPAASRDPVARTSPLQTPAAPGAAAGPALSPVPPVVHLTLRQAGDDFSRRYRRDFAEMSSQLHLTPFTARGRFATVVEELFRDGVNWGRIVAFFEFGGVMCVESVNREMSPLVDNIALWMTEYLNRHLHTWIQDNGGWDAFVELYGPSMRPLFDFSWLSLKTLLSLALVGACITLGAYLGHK

`CC1(C)CCC(CN2CCN(c3ccc(C(=O)NS(=O)(=O)c4ccc(NC[C@@H]5CN(C6CC6)CCO5)c([N+](=O)[O-])c4)c(Oc4cnc5[nH]ccc5c4)c3)CC2)=C(c2ccc(Cl)cc2)C1` [Example 326, 4-(4-{[2-(4-chlorophenyl)-4,4-dimethylcyclohex-1-en-1-yl]methyl}piperazin-1-yl)-N-{[4-({[(2R)-4-cyclopropylmorpholin-2-yl]methyl}amino)-3-nitrophenyl]sulfonyl}-2-(1H-pyrrolo[2,3-b]pyridin-5-yloxy)benzamide] and `CC1(C)CCC(CN2CCN(c3ccc(C(=O)NS(=O)(=O)c4ccc(NC[C@H]5CCN(C6COC6)C5)c([N+](=O)[O-])c4)c(Oc4cnc5[nH]ccc5c4)c3)CC2)=C(c2ccc(Cl)cc2)C1` [Example 195, 4-(4-{[2-(4-chlorophenyl)-4,4-dimethylcyclohex-1-en-1-yl]methyl}piperazin-1-yl)-N-{[3-nitro-4-({[(3R)-1-oxetan-3-ylpyrrolidin-3-yl]methyl}amino)phenyl]sulfonyl}-2-(1H-pyrrolo[2,3-b]pyridin-5-yloxy)benzamide] cannot be ordered by Ki: under 0.01 nM for the first, under 0.01 nM for the second.

`CC1(C)CCC(CN2CCN(c3ccc(C(=O)NS(=O)(=O)c4cnc(OC[C@H]5CC[C@H](O)CC5)c(Cl)c4)c(Oc4cnc5[nH]ccc5c4)c3)CC2)=C(c2ccc(Cl)cc2)C1` [Example 298, N-({5-chloro-6-[(trans-4-hydroxycyclohexyl)methoxy]pyridin-3-yl}sulfonyl)-4-(4-{[2-(4-chlorophenyl)-4,4-dimethylcyclohex-1-en-1-yl]methyl}piperazin-1-yl)-2-(1H-pyrrolo[2,3-b]pyridin-5-yloxy)benzamide] and `CO[C@H]1CC[C@@H](CNc2ccc(S(=O)(=O)NC(=O)c3ccc(N4CCN(CC5=C(c6ccc(Cl)cc6)CC(C)(C)CC5)CC4)cc3Oc3cnc4[nH]ccc4c3)cc2[N+](=O)[O-])CC1` [Example 29, Cis-4-(4-{[2-(4-chlorophenyl)-4,4-dimethylcyclohex-1-en-1-yl]methyl}piperazin-1-yl)-N-[(4-{[(4-methoxycyclohexyl)methyl]amino}-3-nitrophenyl)sulfonyl]-2-(1H-pyrrolo[2,3-b]pyridin-5-yloxy)benzamide] cannot be ordered by Ki: under 0.01 nM for the first, under 0.01 nM for the second.

Compared with `CC1(C)CCC(CN2CCN(c3ccc(C(=O)NS(=O)(=O)c4ccc(NCC5CN(CCF)CCO5)c([N+](=O)[O-])c4)c(Oc4cnc5[nH]ccc5c4)c3)CC2)=C(c2ccc(Cl)cc2)C1` (stereo not shown) [Example 165, 4-(4-{[2-(4-chlorophenyl)-4,4-dimethylcyclohex-1-en-1-yl]methyl}piperazin-1-yl)-N-{[4-({[4-(2-fluoroethyl)morpholin-2-yl]methyl}amino)-3-nitrophenyl]sulfonyl}-2-(1H-pyrrolo[2,3-b]pyridin-5-yloxy)benzamide], `CC1(C)CCC(CN2CCN(c3ccc(C(=O)NS(=O)(=O)c4ccc(N[C@H]5CCN(CCF)C5)c([N+](=O)[O-])c4)c(Oc4cnc5[nH]ccc5c4)c3)CC2)=C(c2ccc(Cl)cc2)C1` [Example 181, 4-(4-{[2-(4-chlorophenyl)-4,4-dimethylcyclohex-1-en-1-yl]methyl}piperazin-1-yl)-N-[(4-{[(3S)-1-(2-fluoroethyl)pyrrolidin-3-yl]amino}-3-nitrophenyl)sulfonyl]-2-(1H-pyrrolo[2,3-b]pyridin-5-yloxy)benzamide] is higher in Ki: under 0.01 nM for the first, 0.017 nM for the second.

Compared with `COCC(C)(C)CNc1ccc(S(=O)(=O)NC(=O)c2ccc(N3CCN(CC4=C(c5ccc(Cl)cc5)CC(C)(C)CC4)CC3)cc2Oc2cnc3[nH]ccc3c2)cc1[N+](=O)[O-]` [Example 155, 4-(4-{[2-(4-chlorophenyl)-4,4-dimethylcyclohex-1-en-1-yl]methyl}piperazin-1-yl)-N-({4-[(3-methoxy-2,2-dimethylpropyl)amino]-3-nitrophenyl}sulfonyl)-2-(1H-pyrrolo[2,3-b]pyridin-5-yloxy)benzamide], `COc1cccc(CNc2ccc(S(=O)(=O)NC(=O)c3ccc(N4CCN(CC5=C(c6ccc(Cl)cc6)CC(C)(C)CC5)CC4)cc3Oc3cnc4[nH]ccc4c3)cc2[N+](=O)[O-])c1` [Example 176, 4-(4-{[2-(4-chlorophenyl)-4,4-dimethylcyclohex-1-en-1-yl]methyl}piperazin-1-yl)-N-({4-[(3-methoxybenzyl)amino]-3-nitrophenyl}sulfonyl)-2-(1H-pyrrolo[2,3-b]pyridin-5-yloxy)benzamide] is 2.6-fold lower in Ki: 0.059 nM for the first, 0.023 nM for the second.

Going from `CC1(C)CCC(CN2CCN(c3ccc(C(=O)NS(=O)(=O)c4ccc(NCC5COCCN5C5CCOC5)c([N+](=O)[O-])c4)c(Oc4cnc5[nH]ccc5c4)c3)CC2)=C(c2ccc(Cl)cc2)C1` (stereo not shown) [Example 171, 4-(4-{[2-(4-chlorophenyl)-4,4-dimethylcyclohex-1-en-1-yl]methyl}piperazin-1-yl)-N-[(3-nitro-4-{[(4-tetrahydrofuran-3-ylmorpholin-3-yl)methyl]amino}phenyl)sulfonyl]-2-(1H-pyrrolo[2,3-b]pyridin-5-yloxy)benzamide] to `CC1(C)CCC(CN2CCN(c3ccc(C(=O)NS(=O)(=O)c4ccc(N[C@H]5CCN(C6CC6)C5)c([N+](=O)[O-])c4)c(Oc4cnc5[nH]ccc5c4)c3)CC2)=C(c2ccc(Cl)cc2)C1` [Example 142, 4-(4-{[2-(4-chlorophenyl)-4,4-dimethylcyclohex-1-en-1-yl]methyl}piperazin-1-yl)-N-[(4-{[(3S)-1-cyclopropylpyrrolidin-3-yl]amino}-3-nitrophenyl)sulfonyl]-2-(1H-pyrrolo[2,3-b]pyridin-5-yloxy)benzamide], the Ki rises from under 0.01 nM to 0.13 nM. The first binds more tightly here.

First: CN1CCC(F)(COc2ccc(S(=O)(=O)NC(=O)c3ccc(N4CCN(CC5=C(c6ccc(Cl)cc6)CC(C)(C)CC5)CC4)cc3Oc3cnc4[nH]ccc4c3)cc2S(=O)(=O)C(F)(F)F)CC1 [Example 230, 4-(4-{[2-(4-chlorophenyl)-4,4-dimethylcyclohex-1-en-1-yl]methyl}piperazin-1-yl)-N-({4-[(4-fluoro-1-methylpiperidin-4-yl)methoxy]-3-[(trifluoromethyl)sulfonyl]phenyl}sulfonyl)-2-(1H-pyrrolo[2,3-b]pyridin-5-yloxy)benzamide]
Second: CC1(C)CCC(CN2CCN(c3ccc(C(=O)NS(=O)(=O)c4ccc(OCC5(F)CCN(C6COC6)CC5)c(Cl)c4)c(Oc4cnc5[nH]ccc5c4)c3)CC2)=C(c2ccc(Cl)cc2)C1 [Example 322, N-[(3-chloro-4-{[4-fluoro-1-(oxetan-3-yl)piperidin-4-yl]methoxy}phenyl)sulfonyl]-4-(4-{[2-(4-chlorophenyl)-4,4-dimethylcyclohex-1-en-1-yl]methyl}piperazin-1-yl)-2-(1H-pyrrolo[2,3-b]pyridin-5-yloxy)benzamide]
The Ki of the first is higher: 0.031 nM for the first, under 0.01 nM for the second.

Going from `CN1CCC(Nc2ccc(S(=O)(=O)NC(=O)c3ccc(N4CCN(CC5=C(c6ccc(Cl)cc6)CC(C)(C)CC5)CC4)cc3Oc3cccc4[nH]c5ccccc5c34)cc2[N+](=O)[O-])CC1` [Example 7, 2-(9H-carbazol-4-yloxy)-4-(4-{[2-(4-chlorophenyl)-4,4-dimethylcyclohex-1-en-1-yl]methyl}piperazin-1-yl)-N-({4-[(1-methylpiperidin-4-yl)amino]-3-nitrophenyl}sulfonyl)benzamide] to `CC1(C)CCC(CN2CCN(c3ccc(C(=O)NS(=O)(=O)c4ccc(N[C@H]5CCN(C6CCOC(C)(C)C6)C5)c([N+](=O)[O-])c4)c(Oc4cnc5[nH]ccc5c4)c3)CC2)=C(c2ccc(Cl)cc2)C1` (stereo partly drawn) [Example 133, 4-(4-{[2-(4-chlorophenyl)-4,4-dimethylcyclohex-1-en-1-yl]methyl}piperazin-1-yl)-N-[(4-{[(3S)-1-(2,2-dimethyltetrahydro-2H-pyran-4-yl)pyrrolidin-3-yl]amino}-3-nitrophenyl)sulfonyl]-2-(1H-pyrrolo[2,3-b]pyridin-5-yloxy)benzamide], the Ki falls from 4.92 nM to under 0.01 nM.

Compared with `CC1(C)CCC(CN2CCN(c3ccc(C(=O)NS(=O)(=O)c4ccc(OCC5(F)CCN(C6CCOCC6)CC5)c([N+](=O)[O-])c4)c(Oc4cnc5[nH]ccc5c4)c3)CC2)=C(c2ccc(Cl)cc2)C1` [Example 192, 4-(4-{[2-(4-chlorophenyl)-4,4-dimethylcyclohex-1-en-1-yl]methyl}piperazin-1-yl)-N-({4-[(4-fluoro-1-tetrahydro-2H-pyran-4-ylpiperidin-4-yl)methoxy]-3-nitrophenyl}sulfonyl)-2-(1H-pyrrolo[2,3-b]pyridin-5-yloxy)benzamide], `CC1(C)CCC(CN2CCN(c3ccc(C(=O)NS(=O)(=O)c4ccc(NCC5CCCN(CC#N)C5)c([N+](=O)[O-])c4)c(Oc4cnc5[nH]ccc5c4)c3)CC2)=C(c2ccc(Cl)cc2)C1` (stereo not shown) [Example 229, 4-(4-{[2-(4-chlorophenyl)-4,4-dimethylcyclohex-1-en-1-yl]methyl}piperazin-1-yl)-N-{[4-({[1-(cyanomethyl)piperidin-3-yl]methyl}amino)-3-nitrophenyl]sulfonyl}-2-(1H-pyrrolo[2,3-b]pyridin-5-yloxy)benzamide] is higher in Ki: under 0.01 nM for the first, 2.11 nM for the second. The first binds more tightly here.

First: CC1(C)CCC(CN2CCN(c3ccc(C(=O)NS(=O)(=O)c4cc(F)c(NCC5CCOCC5)cc4Cl)c(Oc4cnc5[nH]ccc5c4)c3)CC2)=C(c2ccc(Cl)cc2)C1 [Example 54, N-({2-chloro-5-fluoro-4-[(tetrahydro-2H-pyran-4-ylmethyl)amino]phenyl}sulfonyl)-4-(4-{[2-(4-chlorophenyl)-4,4-dimethylcyclohex-1-en-1-yl]methyl}piperazin-1-yl)-2-(1H-pyrrolo[2,3-b]pyridin-5-yloxy)benzamide]
Second: CC1(C)CCC(CN2CCN(c3ccc(C(=O)NS(=O)(=O)c4ccc5nc[nH]c(=O)c5c4)c(Oc4cnc5[nH]ccc5c4)c3)CC2)=C(c2ccc(Cl)cc2)C1 [Example 70, 4-(4-{[2-(4-chlorophenyl)-4,4-dimethylcyclohex-1-en-1-yl]methyl}piperazin-1-yl)-N-[(4-oxo-3,4-dihydroquinazolin-6-yl)sulfonyl]-2-(1H-pyrrolo[2,3-b]pyridin-5-yloxy)benzamide]
The Ki of the first is 1.9-fold lower: 2.07 nM for the first, 3.96 nM for the second. The first binds more tightly here.

Work on `CC1(C)CC(c2ccc(Cl)cc2)=C(CN2CCN(c3ccc(C(=O)NS(=O)(=O)c4ccc(NCC5COCCO5)c([N+](=O)[O-])c4)c(Oc4cnc5[nH]ccc5c4)c3)CC2)CO1` (stereo not shown) [Example 31, 4-(4-{[4-(4-chlorophenyl)-6,6-dimethyl-5,6-dihydro-2H-pyran-3-yl]methyl}piperazin-1-yl)-N-({4-[(1,4-dioxan-2-ylmethyl)amino]-3-nitrophenyl}sulfonyl)-2-(1H-pyrrolo[2,3-b]pyridin-5-yloxy)benzamide] yielded a Ki of under 0.01 nM.
